ChEMBL document CHEMBL5260810, “Inhibition of bromodomain-containing protein 9 for the prevention of epigenetically-defined drug resistance” (Bioorg Med Chem Lett, 2017)

What was measured:
NCI-H1666 = test: Cytotoxicity against human NCI-H1666 cells measured after 8 days; format: functional, cell-based; details: NCI-H1666, 192 h
CAL-12T = test: Cytotoxicity against human CAL-12T cells measured after 8 days; format: functional, cell-based; details: 192 h
EB2 = test: Cytotoxicity against human EB2 cells measured after 8 days; format: functional, cell-based; details: EB2, 192 h
[1] = molecular target: Bromodomain-containing protein 2 (Homo sapiens, UniProt P25440); test: Binding affinity to human partial length BRD2 bromodomain 1/2 isoform 1 (K71 to D455 residues) by BROMOscan assay
MEL-JUSO = test: Cytotoxicity against human MEL-JUSO cells measured after 8 days; format: functional, cell-based; details: 192 h
[2] = molecular target: Transcription initiation factor TFIID subunit 1-like (Homo sapiens, UniProt Q8IZX4); test: Binding affinity to human partial length TAF1L bromodomain 2 (Q1523 to D1654 residues) expressed in bacterial expression system by BROMOscan assay
Sequence of Transcription initiation factor TFIID subunit 1-like (Q8IZX4 whole entry, the tested form may be a part): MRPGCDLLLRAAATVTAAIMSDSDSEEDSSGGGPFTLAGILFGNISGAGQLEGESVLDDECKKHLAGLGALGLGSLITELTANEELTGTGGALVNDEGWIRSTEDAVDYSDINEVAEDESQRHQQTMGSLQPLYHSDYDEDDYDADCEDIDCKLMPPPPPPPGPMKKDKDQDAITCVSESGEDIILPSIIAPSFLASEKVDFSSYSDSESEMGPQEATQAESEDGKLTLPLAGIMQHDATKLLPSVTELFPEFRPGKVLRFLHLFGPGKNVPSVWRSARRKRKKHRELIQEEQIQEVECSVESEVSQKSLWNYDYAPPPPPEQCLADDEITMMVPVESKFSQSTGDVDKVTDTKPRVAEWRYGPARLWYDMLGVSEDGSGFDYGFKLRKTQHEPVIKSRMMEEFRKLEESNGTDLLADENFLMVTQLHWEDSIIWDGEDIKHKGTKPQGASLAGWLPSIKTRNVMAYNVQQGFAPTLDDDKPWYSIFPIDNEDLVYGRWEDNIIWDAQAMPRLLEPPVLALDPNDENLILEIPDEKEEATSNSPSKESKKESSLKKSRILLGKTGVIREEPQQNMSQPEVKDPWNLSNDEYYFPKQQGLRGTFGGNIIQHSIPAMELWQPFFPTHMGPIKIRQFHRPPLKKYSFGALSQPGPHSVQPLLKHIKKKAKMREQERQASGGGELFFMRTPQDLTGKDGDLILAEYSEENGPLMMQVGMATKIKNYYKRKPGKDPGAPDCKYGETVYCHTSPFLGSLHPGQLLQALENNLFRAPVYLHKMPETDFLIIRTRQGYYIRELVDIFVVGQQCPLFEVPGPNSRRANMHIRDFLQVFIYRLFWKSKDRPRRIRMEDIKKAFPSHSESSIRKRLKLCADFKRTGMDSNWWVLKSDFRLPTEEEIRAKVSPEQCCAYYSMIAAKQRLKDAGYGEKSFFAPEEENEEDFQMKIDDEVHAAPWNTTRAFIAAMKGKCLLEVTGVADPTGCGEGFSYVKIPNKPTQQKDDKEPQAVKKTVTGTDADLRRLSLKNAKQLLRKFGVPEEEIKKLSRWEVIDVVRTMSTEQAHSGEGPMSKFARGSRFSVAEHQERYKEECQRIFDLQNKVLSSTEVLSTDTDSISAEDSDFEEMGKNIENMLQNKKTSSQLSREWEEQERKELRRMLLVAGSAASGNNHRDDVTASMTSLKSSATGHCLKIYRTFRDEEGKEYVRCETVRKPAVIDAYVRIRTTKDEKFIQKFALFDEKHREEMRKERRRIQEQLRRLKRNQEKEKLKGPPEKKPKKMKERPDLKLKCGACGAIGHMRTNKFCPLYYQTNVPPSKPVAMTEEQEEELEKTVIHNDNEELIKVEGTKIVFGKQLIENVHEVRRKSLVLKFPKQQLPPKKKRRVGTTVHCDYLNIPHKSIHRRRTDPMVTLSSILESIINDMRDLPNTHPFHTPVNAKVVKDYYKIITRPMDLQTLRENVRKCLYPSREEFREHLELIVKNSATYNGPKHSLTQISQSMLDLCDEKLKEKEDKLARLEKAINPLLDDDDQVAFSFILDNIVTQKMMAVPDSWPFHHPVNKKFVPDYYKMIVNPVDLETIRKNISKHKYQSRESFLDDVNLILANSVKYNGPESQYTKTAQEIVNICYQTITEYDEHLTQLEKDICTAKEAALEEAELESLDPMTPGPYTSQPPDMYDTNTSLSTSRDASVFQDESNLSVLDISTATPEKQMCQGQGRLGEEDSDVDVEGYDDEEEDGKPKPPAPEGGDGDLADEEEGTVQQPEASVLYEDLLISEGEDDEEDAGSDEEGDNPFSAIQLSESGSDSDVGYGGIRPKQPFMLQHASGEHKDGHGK

[3] = Cytotoxicity against human HCC1171 cells measured after 8 days; format: functional, cell-based; details: HCC1171, 192 h
[4] = Cytotoxicity against human EB1 cells measured after 8 days; format: functional, cell-based; details: EB1, 192 h
SNU-C1 = test: Cytotoxicity against human SNU-C1 cells measured after 8 days; format: functional, cell-based; details: SNU-C1, 192 h
[5] = Cytotoxicity against human NCE-G 111 cells measured after 8 days; format: functional, cell-based; details: NCE-G 111, 192 h
NCI-H1944 = test: Cytotoxicity against human NCI-H1944 cells measured after 8 days; format: functional, cell-based; details: NCI-H1944, 192 h
[6] = molecular target: Transcription initiation factor TFIID subunit 1 (Homo sapiens, UniProt P21675); test: Binding affinity to human partial length TAF1 bromodomain 2 (D1521 to D1656 residues) expressed in bacterial expression system by BROMOscan assay
[7] = Cytotoxicity against human HS-Sultan cells measured after 8 days; format: functional, cell-based; details: 192 h
NCI-H2347 = test: Cytotoxicity against human NCI-H2347 cells measured after 8 days; format: functional, cell-based; details: NCI-H2347, 192 h
[8] = molecular target: Insulin receptor (Homo sapiens) (UniProt P06213); test: Inhibition of InsR (unknown origin) at 1 uM relative to control
MDA-MB-157 = test: Cytotoxicity against human MDA-MB-157 cells measured after 8 days; format: functional, cell-based; details: MDA-MB-157, 192 h
[9] = molecular target: 5-hydroxytryptamine receptor 2A (Homo sapiens) (UniProt P28223); test: Displacement of [3H]ketanserin human recombinant 5-HT2A receptor at 10 uM after 60 mins by scintillation counting analysis relative to control
[10] = Cytotoxicity against human NCI-H2373 cells measured after 8 days; format: functional, cell-based; details: NCI-H2373, 192 h
BJAB = test: Cytotoxicity against human BJAB cells measured after 8 days; format: functional, cell-based; details: 192 h
Protein polybromo-1 = Protein polybromo-1 (Homo sapiens, UniProt Q86U86); test: Binding affinity to human partial length PBRM1 bromodomain 5 (S645 to D766 residues) expressed in bacterial expression system by BROMOscan assay
Sequence of Protein polybromo-1 (Q86U86 whole entry, the tested form may be a part): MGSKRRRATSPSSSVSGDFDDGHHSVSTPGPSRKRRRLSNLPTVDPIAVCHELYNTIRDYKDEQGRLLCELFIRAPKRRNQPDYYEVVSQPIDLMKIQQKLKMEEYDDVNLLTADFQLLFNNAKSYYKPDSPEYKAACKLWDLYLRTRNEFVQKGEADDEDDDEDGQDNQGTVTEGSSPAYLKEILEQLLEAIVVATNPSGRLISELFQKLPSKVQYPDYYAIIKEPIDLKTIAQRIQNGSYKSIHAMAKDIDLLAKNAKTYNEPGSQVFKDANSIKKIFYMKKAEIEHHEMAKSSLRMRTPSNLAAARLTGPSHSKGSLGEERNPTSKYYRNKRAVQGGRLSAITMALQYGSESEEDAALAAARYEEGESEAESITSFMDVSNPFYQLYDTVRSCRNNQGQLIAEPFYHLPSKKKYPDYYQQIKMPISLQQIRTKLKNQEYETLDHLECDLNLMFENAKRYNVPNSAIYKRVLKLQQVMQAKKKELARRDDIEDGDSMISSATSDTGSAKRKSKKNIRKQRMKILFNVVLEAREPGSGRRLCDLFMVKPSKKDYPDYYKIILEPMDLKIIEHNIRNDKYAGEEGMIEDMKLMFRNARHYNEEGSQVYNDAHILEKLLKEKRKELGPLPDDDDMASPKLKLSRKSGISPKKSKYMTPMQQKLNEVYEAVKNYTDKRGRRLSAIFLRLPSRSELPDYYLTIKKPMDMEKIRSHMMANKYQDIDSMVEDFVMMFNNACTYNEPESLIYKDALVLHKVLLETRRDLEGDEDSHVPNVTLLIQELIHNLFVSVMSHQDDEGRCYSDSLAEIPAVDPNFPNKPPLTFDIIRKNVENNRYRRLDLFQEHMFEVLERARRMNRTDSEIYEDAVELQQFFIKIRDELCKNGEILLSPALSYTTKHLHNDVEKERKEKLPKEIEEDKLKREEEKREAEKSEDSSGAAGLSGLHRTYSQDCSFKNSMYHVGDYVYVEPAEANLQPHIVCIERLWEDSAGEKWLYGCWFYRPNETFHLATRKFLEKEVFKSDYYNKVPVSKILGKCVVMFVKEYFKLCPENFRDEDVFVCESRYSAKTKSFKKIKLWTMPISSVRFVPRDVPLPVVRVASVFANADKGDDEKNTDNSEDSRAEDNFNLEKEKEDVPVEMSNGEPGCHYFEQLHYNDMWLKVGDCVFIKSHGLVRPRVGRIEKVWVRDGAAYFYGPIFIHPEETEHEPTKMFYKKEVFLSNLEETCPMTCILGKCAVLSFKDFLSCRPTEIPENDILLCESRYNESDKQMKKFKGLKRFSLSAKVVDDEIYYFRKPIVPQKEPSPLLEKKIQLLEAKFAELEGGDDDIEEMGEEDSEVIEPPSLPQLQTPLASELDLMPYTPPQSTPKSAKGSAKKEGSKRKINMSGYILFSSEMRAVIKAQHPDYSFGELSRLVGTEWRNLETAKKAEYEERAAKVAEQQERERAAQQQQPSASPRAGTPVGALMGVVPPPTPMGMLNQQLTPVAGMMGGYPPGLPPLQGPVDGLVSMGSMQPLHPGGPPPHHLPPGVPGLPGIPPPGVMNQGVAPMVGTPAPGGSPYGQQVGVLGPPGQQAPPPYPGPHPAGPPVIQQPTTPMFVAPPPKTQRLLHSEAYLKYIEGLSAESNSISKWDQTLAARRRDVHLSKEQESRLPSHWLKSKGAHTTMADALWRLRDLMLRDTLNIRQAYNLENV

[11] = Cytotoxicity against human MDST8 cells measured after 8 days; format: functional, cell-based; details: MDST8, 192 h
[12] = molecular target: Bromodomain testis-specific protein (Homo sapiens, UniProt Q58F21); test: Binding affinity to human partial length BRDT bromodomain 2 (K250 to E382 residues) expressed in bacterial expression system by BROMOscan assay
HT-29 = test: Cytotoxicity against human HT-29 cells measured after 8 days; format: functional, cell-based; details: HT-29, 192 h
[13] = Cytotoxicity against human HMY-1 cells measured after 8 days; format: functional, cell-based; details: HMY-1, 192 h
Raji = test: Cytotoxicity against human Raji cells measured after 8 days; format: functional, cell-based; details: 192 h
NCI-H1581 = test: Cytotoxicity against human NCI-H1581 cells measured after 8 days; format: functional, cell-based; details: NCI-H1581, 192 h
HOP-62 = test: Cytotoxicity against human HOP-62 cells measured after 8 days; format: functional, cell-based; details: HOP-62, 192 h
Rattus norvegicus = species on record: Rattus norvegicus; test: Displacement of [125I]alpha-dendrotoxin from rat brain voltage-gated K channel at 10 uM after 60 mins by scintillation counting analysis relative to control
[14] = molecular target: Sodium-dependent serotonin transporter (Homo sapiens) (UniProt P31645); test: Displacement of [3H]-imipramine from recombinant human 5-HT transporter at 10 uM after 60 mins by scintillation counting relative to control
LXF-289 cell line = test: Cytotoxicity against human LXF-289 cell line measured after 8 days; format: functional, cell-based; details: LXF-289, 192 h
Homo sapiens = species on record: Homo sapiens; test: Displacement of [3H]BRL 43694 from human recombinant 5-HT3 receptor at 10 uM after 120 mins by scintillation counting analysis relative to control
PC-3 = test: Cytotoxicity against human PC-3 cells measured after 8 days; format: functional, cell-based; details: PC-3, 192 h
KNS-62 = test: Cytotoxicity against human KNS-62 cells measured after 8 days; format: functional, cell-based; details: KNS-62, 192 h
HCC70 = test: Cytotoxicity against human HCC70 cells measured after 8 days; format: functional, cell-based; details: HCC70, 192 h
HDQ-P1 = test: Cytotoxicity against human HDQ-P1 cells measured after 8 days; format: functional, cell-based; details: HDQ-P1, 192 h
[15] = Cytotoxicity against human KMM-1 cells measured after 8 days; format: functional, cell-based; details: KMM-1, 192 h
[16] = molecular target: Kappa-type opioid receptor (Homo sapiens) (UniProt P41145); test: Displacement of [3H]U69593 from human kappa receptor at 10 uM after 60 mins by scintillation counting analysis relative to control
Sequence of Kappa-type opioid receptor (Homo sapiens) (P41145 whole entry, the tested form may be a part): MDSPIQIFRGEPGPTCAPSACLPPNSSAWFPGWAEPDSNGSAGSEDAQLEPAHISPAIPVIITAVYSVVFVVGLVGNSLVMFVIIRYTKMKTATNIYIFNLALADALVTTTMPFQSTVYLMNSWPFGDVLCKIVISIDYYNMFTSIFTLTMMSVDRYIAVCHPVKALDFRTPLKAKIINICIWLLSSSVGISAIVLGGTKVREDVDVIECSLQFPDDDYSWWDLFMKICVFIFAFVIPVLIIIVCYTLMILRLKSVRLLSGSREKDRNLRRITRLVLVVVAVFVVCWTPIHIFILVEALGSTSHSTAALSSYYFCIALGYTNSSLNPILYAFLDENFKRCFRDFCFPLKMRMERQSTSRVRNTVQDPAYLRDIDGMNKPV

[17] = molecular target: Histone acetyltransferase KAT2B (Homo sapiens, UniProt Q92831); test: Binding affinity to human partial length PCAF (G715 to D831 residues) expressed in bacterial expression system by BROMOscan assay
Sequence of Histone acetyltransferase KAT2B (Q92831 whole entry, the tested form may be a part): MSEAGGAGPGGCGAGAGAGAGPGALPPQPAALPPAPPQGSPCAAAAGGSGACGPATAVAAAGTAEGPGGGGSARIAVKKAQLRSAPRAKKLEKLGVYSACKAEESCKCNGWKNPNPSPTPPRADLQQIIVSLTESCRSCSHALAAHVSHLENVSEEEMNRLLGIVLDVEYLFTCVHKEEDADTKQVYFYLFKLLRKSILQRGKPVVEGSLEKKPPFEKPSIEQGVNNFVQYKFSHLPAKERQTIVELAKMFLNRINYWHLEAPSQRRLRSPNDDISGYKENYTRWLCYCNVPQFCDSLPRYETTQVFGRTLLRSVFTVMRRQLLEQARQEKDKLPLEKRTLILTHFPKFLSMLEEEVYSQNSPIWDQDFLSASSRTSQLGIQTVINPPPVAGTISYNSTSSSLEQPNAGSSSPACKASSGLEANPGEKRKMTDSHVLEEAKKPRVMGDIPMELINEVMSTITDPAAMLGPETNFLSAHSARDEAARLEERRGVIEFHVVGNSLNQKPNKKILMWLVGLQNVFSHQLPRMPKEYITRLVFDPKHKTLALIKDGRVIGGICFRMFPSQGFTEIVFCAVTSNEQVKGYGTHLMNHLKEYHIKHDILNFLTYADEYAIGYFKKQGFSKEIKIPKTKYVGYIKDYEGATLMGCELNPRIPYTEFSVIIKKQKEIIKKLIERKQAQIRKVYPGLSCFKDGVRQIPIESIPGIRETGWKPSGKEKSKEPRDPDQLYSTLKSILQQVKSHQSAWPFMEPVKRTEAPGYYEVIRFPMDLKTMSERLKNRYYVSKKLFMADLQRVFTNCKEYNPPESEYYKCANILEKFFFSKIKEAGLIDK

[18] = Cytotoxicity against human NCI-H1339 cells measured after 8 days; format: functional, cell-based; details: NCI-H1339, 192 h
[19] = molecular target: Proto-oncogene tyrosine-protein kinase Src (Homo sapiens) (UniProt P12931); test: Inhibition of Src (unknown origin) at 1 uM relative to control
LP-1 = test: Cytotoxicity against human LP-1 cells measured after 8 days; format: functional, cell-based; details: LP-1, 192 h
SW480 = test: Cytotoxicity against human SW480 cells measured after 8 days; format: functional, cell-based; details: SW480, 192 h
CREB-binding protein = CREB-binding protein (Homo sapiens, UniProt Q92793); test: Binding affinity to human partial length CREBBP (R1081 to G1197 residues) expressed in bacterial expression system by BROMOscan assay
MCF7 = test: Cytotoxicity against human MCF7 cells measured after 8 days; format: functional, cell-based; details: MCF7, 192 h
[20] = molecular target: Misshapen-like kinase 1 (Homo sapiens) (UniProt Q8N4C8); test: Inhibition of Mink1 (unknown origin) at 1 uM relative to control
[21] = molecular target: Bromodomain-containing protein 3 (Homo sapiens, UniProt Q15059); test: Binding affinity to BRD3 bromodomain 1/2 (unknown origin) by BROMOscan assay
NCI-H1355 = test: Cytotoxicity against human NCI-H1355 cells measured after 8 days; format: functional, cell-based; details: NCI-H1355, 192 h
[22] = Cytotoxicity against human KPL-1 cells measured after 8 days; format: functional, cell-based; details: KPL-1, 192 h

## C/C=C/Cn1cc(-c2ccc(C(C)(C)O)cc2OC)c2cc[nH]c2c1=O
NCI-H1666
  IC50: 20 µM
CAL-12T
  IC50: 20 µM
EB2
  IC50: 20 µM
[1]
  Kd: 2.8 µM
MEL-JUSO
  IC50: 20 µM
[2]
  Kd: > 10 µM
[3]
  IC50: 20 µM
[4]
  IC50: 20 µM
SNU-C1
  IC50: 20 µM
[5]
  IC50: 20 µM
NCI-H1944
  IC50: 20 µM
[6]
  Kd: > 10 µM
[7]
  IC50: 20 µM
NCI-H2347
  IC50: 20 µM
[8]
  inhibition: 4.5%
MDA-MB-157
  IC50: 20 µM
[9]
  Activity: 0%
[10]
  IC50: 20 µM
BJAB
  IC50: 20 µM
Protein polybromo-1
  Kd: > 10 µM
[11]
  IC50: 20 µM
[12]
  Kd: 2.6 µM
HT-29
  IC50: 20 µM
[13]
  IC50: 20 µM
Raji
  IC50: 12.4 µM
NCI-H1581
  IC50: 20 µM
HOP-62
  IC50: 20 µM
Rattus norvegicus
  Activity: -1%
[14]
  Activity: 3%
LXF-289 cell line
  IC50: 20 µM
Homo sapiens
  Activity: -6%
PC-3
  IC50: 20 µM
KNS-62
  IC50: 14.7 µM
HCC70
  IC50: 20 µM
HDQ-P1
  IC50: 20 µM
[15]
  IC50: 20 µM
[16]
  Activity: -1%
[17]
  Kd: > 10 µM
[18]
  IC50: 20 µM
[19]
  inhibition: 4.5%
LP-1
  IC50: 19.5 µM
SW480
  IC50: 20 µM
CREB-binding protein
  Kd: 3.5 µM
MCF7
  IC50: 20 µM
[20]
  inhibition: 18%
[21]
  Kd: 5.5 µM
NCI-H1355
  IC50: 20 µM
[22]
  IC50: 17.5 µM

## C/C=C/Cn1cc(-c2cc(OC)c(C(C)(C)O)cc2OC)c2cc(C)[nH]c2c1=O
[1]
  Kd: 1.7 µM
[2]
  Kd: > 10 µM
[6]
  Kd: > 10 µM
Protein polybromo-1
  Kd: > 10 µM
[12]
  Kd: 6.6 µM
[17]
  Kd: > 10 µM
CREB-binding protein
  Kd: > 10 µM
[21]
  Kd: > 10 µM

## C/C=C/Cn1cc(-c2ccc(C(=O)N3CCOCC3)cc2)c2cc[nH]c2c1=O
NCI-H1666
  IC50: 19.5 µM
CAL-12T
  IC50: 20 µM
EB2
  IC50: 20 µM
[1]
  Kd: 2.3 µM
MEL-JUSO
  IC50: 20 µM
[2]
  Kd: 0.61 µM
[3]
  IC50: 20 µM
[4]
  IC50: 20 µM
SNU-C1
  IC50: 20 µM
[5]
  IC50: 20 µM
NCI-H1944
  IC50: 20 µM
[6]
  Kd: 0.31 µM
[7]
  IC50: 20 µM
NCI-H2347
  IC50: 20 µM
[8]
  inhibition: 1.1%
MDA-MB-157
  IC50: 20 µM
[9]
  Activity: 11%
[10]
  IC50: 20 µM
BJAB
  IC50: 16.5 µM
Protein polybromo-1
  Kd: 26 µM
[11]
  IC50: 20 µM
[12]
  Kd: 3.5 µM
HT-29
  IC50: 20 µM
[13]
  IC50: 20 µM
Raji
  IC50: 20 µM
NCI-H1581
  IC50: 20 µM
HOP-62
  IC50: 20 µM
Rattus norvegicus
  Activity: 0%
[14]
  Activity: 3%
LXF-289 cell line
  IC50: 20 µM
Homo sapiens
  Activity: -5%
PC-3
  IC50: 20 µM
KNS-62
  IC50: 20 µM
HCC70
  IC50: 20 µM
HDQ-P1
  IC50: 20 µM
[15]
  IC50: 20 µM
[16]
  Activity: 6%
[17]
  Kd: > 10 µM
[18]
  IC50: 20 µM
[19]
  inhibition: 0.9%
LP-1
  IC50: 20 µM
SW480
  IC50: 20 µM
CREB-binding protein
  Kd: > 10 µM
MCF7
  IC50: 20 µM
[20]
  inhibition: 1.5%
[21]
  Kd: 4.4 µM
NCI-H1355
  IC50: 20 µM
[22]
  IC50: 20 µM

## C/C=C/Cn1cc(-c2cc(OC)c(C(=O)N3CCOCC3)cc2OC)c2cc(C)[nH]c2c1=O
NCI-H1666
  IC50: 2 µM
CAL-12T
  IC50: 2 µM
EB2
  IC50: 2 µM
[1]
  Kd: > 10 µM
MEL-JUSO
  IC50: 2 µM
[2]
  Kd: > 10 µM
[3]
  IC50: 2 µM
[4]
  IC50: 2 µM
SNU-C1
  IC50: 2 µM
[5]
  IC50: 2 µM
NCI-H1944
  IC50: 2 µM
[6]
  Kd: > 10 µM
[7]
  IC50: 2 µM
NCI-H2347
  IC50: 2 µM
[8]
  inhibition: 3%
MDA-MB-157
  IC50: 2 µM
[9]
  Activity: 15%
[10]
  IC50: 2 µM
BJAB
  IC50: 2 µM
Protein polybromo-1
  Kd: > 10 µM
[11]
  IC50: 2 µM
[12]
  Kd: > 10 µM
HT-29
  IC50: 2 µM
[13]
  IC50: 2 µM
Raji
  IC50: 2 µM
NCI-H1581
  IC50: 2 µM
HOP-62
  IC50: 2 µM
Rattus norvegicus
  Activity: 2%
[14]
  Activity: 4%
LXF-289 cell line
  IC50: 2 µM
Homo sapiens
  Activity: -5%
PC-3
  IC50: 2 µM
KNS-62
  IC50: 2 µM
HCC70
  IC50: 2 µM
HDQ-P1
  IC50: 2 µM
[15]
  IC50: 2 µM
[16]
  Activity: 8%
[17]
  Kd: > 10 µM
[18]
  IC50: 2 µM
[19]
  inhibition: 3.5%
LP-1
  IC50: 2 µM
SW480
  IC50: 2 µM
CREB-binding protein
  Kd: > 10 µM
MCF7
  IC50: 1.34 µM
[20]
  inhibition: 8%
[21]
  Kd: > 10 µM
NCI-H1355
  IC50: 2 µM
[22]
  IC50: 2 µM
